Values joined by “and” are separate entries in the source; they are usually repeats but may differ in a detail not shown here. Equal values may be shown once. “Also recorded” adds a separate entry of the source. Read-outs that look alike come from different tables or passages of the source.
How the values were obtained:
S. mutans [1] = format: cell-based, Streptococcus mutans
S. mutans UA159 = assay: In vitro static biofilm inhibition assay (crystal violet), incl. dose response study; format: cell-based, Streptococcus mutans
S. sobrinus 6715 = assay: In vitro static biofilm inhibition assay (crystal violet); format: cell-based, Streptococcus sobrinus; details: 125 μM; for inhibition of biofilm formation of S. sobrinus 6715: BHI 1% sucrose, 20 h
[2] = tested on: all strains of bacteria tested; set-up: key to the marks not given beside the values; details: 1 mM-metal
Procedure: Tooth application may involve exposure to bacteria outside the oral cavity, including the skin and digestive system. CAN, CAS and AgNO3 (1 mM-metal) were tested for their effect on in vitro planktonic growth of bacteria under the conditions listed in FIG. 9.

[3] = tested on: human telomerase immortalized gingival keratinocytes; details: 24 h incubation, DermaLife K keratinocyte culture media, MTS assay
S. mutans [4] = details: 500 μM, 6 h on 6 h-grown biofilm
Procedure: (§1) Potential mechanisms of biofilm inhibition by CeO2-NP were first explored by testing the effect of CAS and CAN on planktonic growth (FIG. 8). […] To further explore potential extracellular mechanisms of biofilm inhibition, dispersal assays were carried out on existing S. mutans and S. sobrinus biofilms grown statically for 6 h as described above (96-well plate, BHI, 1% sucrose). After 6 h, the planktonic cells were removed, the adherent biofilm rinsed (0.9% NaCl) and replaced with fresh 200 μL BHI (positive control) or BHI/500 μM CAS (test wells). All wells were allowed to incubate an additional 6 h after which the adherent biofilm was washed, stained and quantified via UV-Vis analysis (37). Biofilm dispersal was calculated similar to inhibition in Equation I via UV-Vis.

S. sobrinus = details: 500 μM, 6 h on 6 h-grown biofilm
Procedure: as §1

Question: With N.N.O=S(=O)(O)O [(NH4)2SO4, ammonium sulfate, reference compound] as the compound, how does the “activity in limiting planktonic growth” value (S. mutans [1]) read?
Answer: not active

Question: With O=[N+]([O-])[O-].[Ag+] [AgNO3, Silver Nitrate, reference compound] as the compound, how does the “effect on S. mutans biofilm formation (in words)” value (S. mutans UA159) read?
Answer: slight increase in biofilm growth

Question: And the “effect on biofilm growth of S. sobrinus (in words)” value (shortened to “effect on biofilm growth”) (S. sobrinus 6715)?
Answer: incapable of limiting biofilm growth

Question: Which IC50 (S. mutans UA159; read-out: 50% inhibitory concentration (IC50) of biofilm formation) does the source give for N.N.O=[N+]([O-])O.O=[N+]([O-])O.O=[N+]([O-])[O-].O=[N+]([O-])[O-].O=[N+]([O-])[O-].O=[N+]([O-])[O-].[Ce+4] [CAN, ceric ammonium nitrate] here?
Answer: 137 µM

Question: For O=[N+]([O-])[O-].O=[N+]([O-])[O-].O=[N+]([O-])[O-].O=[N+]([O-])[O-].O=[N+]([O-])[O-].O=[N+]([O-])[O-].[Ce+4].[NH4+].[NH4+] [CAN, ceric ammonium nitrate], which “inhibition of S. mutans biofilm growth” value (S. mutans UA159; 125 µM) is on record?
Answer: 51% and ~40%

Question: What about the “inhibition of biofilm formation of S. sobrinus 6715” value (S. sobrinus 6715) of the same compound?
Answer: 44%

Question: And the “effect on planktonic growth of S. mutans” value (S. mutans [1])?
Answer: did not inhibit; also recorded: slight growth lag; also recorded: slight lagging effect; also recorded: Non-inhibitory effect

Question: And the “visible in vitro planktonic growth of bacteria” value [2]?
Answer: ++

Question: And the “toxicity on gingival keratinocytes as compared to AgNO3” value [3]?
Answer: reduced toxicity

Question: O=[N+]([O-])[O-].O=[N+]([O-])[O-].O=[N+]([O-])[O-].[Ce+3] [Ce(NO3)3, Cerium (III) nitrate, reference compound] was tested. Which “effect on S. mutans biofilm formation (in words)” value (S. mutans UA159) did it give?
Answer: slight increase in biofilm growth; also recorded: inactive

Question: And the “effect on biofilm growth” value (S. sobrinus 6715)?
Answer: incapable of limiting biofilm growth

Question: Which “effect on S. mutans biofilm formation (in words)” value (S. mutans UA159; 125 μM (metal ion/Ce), BHI 1% sucrose, 37° C., 5% CO2, 20 h) does the source give for O=S(=O)([O-])[O-].[Zn+2] [ZnSO4, reference compound] here?
Answer: slight increase in biofilm growth

Question: And the “effect on biofilm growth” value (S. sobrinus 6715)?
Answer: incapable of limiting biofilm growth

Question: With ceric ammonium sulfate [CAS] as the compound, how does the “inhibition of S. mutans biofilm growth” value (S. mutans UA159; 125 μM) read?
Answer: 40%

Question: What about the “inhibition of biofilm formation of S. sobrinus 6715” value (S. sobrinus 6715) of the same compound?
Answer: 35%

Question: What about the “effect on planktonic growth of S. mutans” value (S. mutans [1]) of the same compound?
Answer: did not inhibit; also recorded: non-significant growth effect; also recorded: Non-inhibitory effect

Question: And the “biofilm dispersal, S. mutans” value (S. mutans [4])?
Answer: 6%

Question: And the “biofilm dispersal, S. sobrinus” value (S. sobrinus)?
Answer: 8%

Question: What about the “visible in vitro planktonic growth of bacteria” value [2] of the same compound?
Answer: ++

Question: What about the “toxicity on gingival keratinocytes as compared to AgNO3” value [3] of the same compound?
Answer: reduced toxicity
